The text below walks through data of patent US7247709B2, “Mitogenic oxygenases” (Emory University, priority 1998, dated 2007).

For the experiment, the target named is T1, mox1 NADPH-oxidase (Homo sapiens, UniProt Q9Y5S8, I173V).
T1 construct: expressed in transfected cells
T1 sequence (Q9Y5S8 1-564 I173V): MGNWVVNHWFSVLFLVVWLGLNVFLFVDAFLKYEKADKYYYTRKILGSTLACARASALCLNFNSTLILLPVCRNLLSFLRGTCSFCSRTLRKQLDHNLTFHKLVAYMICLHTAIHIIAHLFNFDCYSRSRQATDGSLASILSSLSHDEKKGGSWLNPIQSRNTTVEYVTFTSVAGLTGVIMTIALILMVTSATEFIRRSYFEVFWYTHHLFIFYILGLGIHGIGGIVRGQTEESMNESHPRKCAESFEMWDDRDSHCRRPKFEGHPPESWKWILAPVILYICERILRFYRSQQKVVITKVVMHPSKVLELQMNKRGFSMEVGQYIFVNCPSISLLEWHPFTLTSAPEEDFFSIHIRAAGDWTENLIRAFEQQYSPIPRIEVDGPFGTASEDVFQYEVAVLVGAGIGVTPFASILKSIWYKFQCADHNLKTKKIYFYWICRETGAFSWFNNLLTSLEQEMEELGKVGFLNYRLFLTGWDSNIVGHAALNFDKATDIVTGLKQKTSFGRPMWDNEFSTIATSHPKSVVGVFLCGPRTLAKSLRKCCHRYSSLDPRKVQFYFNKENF
T1 sequence (Q61462 1-192 partner): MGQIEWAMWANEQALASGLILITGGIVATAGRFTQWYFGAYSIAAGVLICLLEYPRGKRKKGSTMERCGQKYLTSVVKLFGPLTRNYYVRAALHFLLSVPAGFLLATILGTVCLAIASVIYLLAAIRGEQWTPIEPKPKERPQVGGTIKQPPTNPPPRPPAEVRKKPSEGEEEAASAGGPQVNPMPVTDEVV
The experiment can be described thus: Cell-free assay for mox1 NADPH-oxidase activity (NADPH-dependent chemiluminescence of cell lysates). Format: biochemical. To be noted: MgCl2 1-5 mM. How it is done:
In an alternate and preferred embodiment of the present invention, cells that had been stably transfected with mox1 (YA28) or with empty vector (NEF2) were grown in 10 cm tissue culture plates in medium containing DMEM, 10% calf serum, 100 units/ml penicillin, 100 μg/ml streptomycin, and 1 μg/ml puromycin to approximately 80% confluency. Cells (five tissue culture plates of each cell type) were washed briefly with 5 ml phosphate buffered saline (PBS) then dissociated from the plates with PBS containing 5 mM EDTA. Cells were pelleted by centrifuging briefly at 1000×g.
To permeabilize the cells, freeze thaw lysis was carried out and this was followed by passage of the cell material through a small bore needle. The supernatant was removed and the cells were frozen on dry ice for 15 minutes. […]
The cell lysates were assayed for protein concentration using the BioRad protein assay system. […] The reaction was initiated by adding 1.5 mM NADPH and 75 μM lucigenin to the assay mix to give a final concentration of 200 μM NADPH and 10 μM lucigenin, and the chemiluminescence was monitored immediately. […] The plate was monitored continuously for 60 minutes and the maximal relative luminescence unit (RLU) value for each sample was used for the graph. […]

As for `[Cl-].[Cl-].[Mg+2]` [MgCl2], the “enhancement of NADPH-oxidase activity” value is recorded as “about 2 fold”.
